Patent US9874563B2, “Detecting and quantifying cryptic HIV replication” (UNIVERSITY OF DELAWARE, priority 2012, dated 2018)
“And” between values parts separate entries of the source, which are not always exact repeats. Equal entries are not always repeated.

Tests used:
HIV [1] = settings: duration of the experiment; 13 patients of the experimental group; cited from earlier work
HIV [2] = assay: Model fit of 2-LTR dynamics following raltegravir intensification (nonlinear mixed-effects, Bayesian MCMC); parameters: species or system human
Text: Previous work has been done on identifying HIV model parameters from experiments involving the use of integrase inhibitors. These models, however, considered only standard viral load measurements, not measurements of 2-LTR circle frequency. We introduce a simple model of the dynamics of the concentrations of actively infected cells y(t) and cells containing 2-LTR episomes c(t) in the site of episome formation. We model the behavior both in the absence of raltegravir uII=0 and in the presence of raltegravir uII=1.
The reproductive ratio of the virus prior to raltegravir intensification is R, and the reproductive ratio after raltegravir intensification is (1−ηII)R, where ηII is the effectiveness of raltegravir at interrupting infection events that would otherwise have occurred without intensification. The reproductive ratios are defined as the average number of infected cells created per infected cell in a single generation. If the virus was replicating efficiently prior to intensification (R0>1), then the measured R would be approximately equal to 1 at equilibrium, as the efficient replication would necessarily be target cell limited. If the infection is controlled prior to intensification (R0<1), then the measured reproductive ratio R will be approximately equal to R0.
2-LTR circles may also be formed at an integrase inhibitor-enhanced rate in the presence of raltegravir. The rate at which infection events are interrupted by raltegravir after intensification is ηIIRay which, when multiplied by the probability 0<kII<1 that the interruption of an infection even leads to the formation of a 2-LTR episome, gives us the rate of integrase inhibitor-enhances 2-LTR formation kIIηIIRay. φ≧0 is the ratio between the intrinsic rate and the raltegravir-enhanced rate of 2-LTR formation.
These dynamics can be written in the form of Equation 1: y=−(1−(1−ηIIuII)R)ay+ye ċ=φkII(1−ηIIuII)Ray+kIIηIIuIIRay−δc (1)
To reduce the parametric covariance, we introduced a re-parametrized parameter A=kIIye/δ to replace kIIye. […]
The posterior distribution of the parameter likelihood given the measured 2-LTR values was computed using a Bayesian Markov-Chain Monte-Carlo method with Gibbs Sampling, as in References 56, 75, 78 and 79 with noninformative prior distributions for the parameters as follows:
Markov-Chain Monte-Carlo methods were used to fit Equation 5 to the experimental data for 13 patients, with shared parameters {θ, δ} and patient-specific parameters {R; ηII, kIIye}, using the measurement uncertainty model described in the Materials and Methods section. […] The maximum-likelihood predicted 2-LTR concentrations for each patient, together with the 95% prediction interval, is shown compared to the measured data in FIG. 3.

HIV 2-LTR circles = settings: cited from earlier work

Cc1nnc(C(=O)NC(C)(C)c2nc(C(=O)NCc3ccc(F)cc3)c(O)c(=O)n2C)o1 [raltegravir]
plasma viral load (HIV [1]): remained below the standard limit of detection
effect on level of cryptic replication (HIV [2]; addition of raltegravir to HAART, interpretation of the 2-LTR data): reduces the level of cryptic replication to undetectable levels
increase in likelihood of 2-LTR formation when raltegravir interrupts integration (HIV [2]; from 95% credible interval of φ): 250-1000 times
ηII (ratio-reduction in R following raltegravir intensification; drug efficacy of raltegravir), MLE (HIV [2]; maximum likelihood (posterior mode), patient-specific fitted parameter, one table row per patient): 0.01 (3×) and 0.19 and 0.02 and 0.49 and 0.77 and 0.05 and 0.03 and 0.79 and 0.81 and 0.99 and 0.08
ηII (ratio-reduction in R following raltegravir intensification; drug efficacy of raltegravir), Median (HIV [2]; posterior median, patient-specific fitted parameter, one table row per patient): 0.78 and 0.21 and 0.02 and 0.53 (3×) and 0.74 and 0.38 and 0.04 and 0.39 and 0.50 and 0.55 and 0.12
patients with 2-LTR containing cells observed (HIV 2-LTR circles; HAART intensified by raltegravir for 48 weeks, experimental group of 45): 13/45 and 13 of the 45
2-LTR quantification, Week Post-Intensification 0 (HIV 2-LTR circles; week 0 (baseline at start of raltegravir intensification), individual HAART-suppressed patients, one table row per patient, censoring limit 1.20): <1.20 2-LTR per 10^6 PBMC (7×) and 1.76 2-LTR per 10^6 PBMC and 38.62 2-LTR per 10^6 PBMC and 35.30 2-LTR per 10^6 PBMC and 9.98 2-LTR per 10^6 PBMC and 2.99 2-LTR per 10^6 PBMC
2-LTR quantification, Week Post-Intensification 2 (HIV 2-LTR circles; week 2 of raltegravir intensification, individual patients, one table row per patient, censoring limit 1.20): 21.47 2-LTR per 10^6 PBMC and 48.16 2-LTR per 10^6 PBMC and 72.77 2-LTR per 10^6 PBMC and 30.55 2-LTR per 10^6 PBMC and 5.84 2-LTR per 10^6 PBMC and 12.98 2-LTR per 10^6 PBMC and 3.05 2-LTR per 10^6 PBMC and <1.20 2-LTR per 10^6 PBMC (4×) and 23.69 2-LTR per 10^6 PBMC and 1.98 2-LTR per 10^6 PBMC
2-LTR quantification, Week Post-Intensification 4 (HIV 2-LTR circles; week 4 of raltegravir intensification, individual patients, one table row per patient, censoring limit 1.20): <1.20 2-LTR per 10^6 PBMC (3×) and 9.07 2-LTR per 10^6 PBMC and 5.37 2-LTR per 10^6 PBMC and 13.42 2-LTR per 10^6 PBMC and 3.19 2-LTR per 10^6 PBMC and 2.68 2-LTR per 10^6 PBMC and 24.75 2-LTR per 10^6 PBMC and 21.07 2-LTR per 10^6 PBMC and 3.03 2-LTR per 10^6 PBMC
2-LTR quantification, Week Post-Intensification 12 (HIV 2-LTR circles; week 12 of raltegravir intensification, individual patients, one table row per patient, censoring limit 1.20): 10.38 2-LTR per 10^6 PBMC and 7.38 2-LTR per 10^6 PBMC and 1.26 2-LTR per 10^6 PBMC and <1.20 2-LTR per 10^6 PBMC (4×) and 1.61 2-LTR per 10^6 PBMC and 9.55 2-LTR per 10^6 PBMC and 39.64 2-LTR per 10^6 PBMC and 30.11 2-LTR per 10^6 PBMC
2-LTR quantification, Week Post-Intensification 24 (HIV 2-LTR circles; week 24 of raltegravir intensification, individual patients, one table row per patient, censoring limit 1.20): 2.73 2-LTR per 10^6 PBMC and 2.20 2-LTR per 10^6 PBMC and <1.20 2-LTR per 10^6 PBMC (8×) and 1.88 2-LTR per 10^6 PBMC and 1.29 2-LTR per 10^6 PBMC
2-LTR quantification, Week Post-Intensification 48 (HIV 2-LTR circles; week 48 of raltegravir intensification, individual patients, one table row per patient, censoring limit 1.20): <1.20 2-LTR per 10^6 PBMC (9×) and 7.04 2-LTR per 10^6 PBMC
